What was measured:
Type in all cases: biochemical
Human plasma [1] = assay: Human plasma anticoagulation, activated partial thromboplastin time (APTT); details: concentration required to double the APTT, linear extrapolation
Human Thrombin = Human Thrombin (Homo sapiens, UniProt P00734); assay: Inhibition of amidase activity of thrombin (Kass); details: apparent association constant, mean over a range of concentrations
t-PA = target: T1, t-PA (Homo sapiens, UniProt P00750); assay: Serine protease selectivity, chromogenic substrate (Kass), t-PA; details: substrate H-D-Ile-Pro-Arg-p-nitroanilide
T1 construct: purchased American Diagnostica, Greenwich, Conn
T1 sequence (P00750 36-562): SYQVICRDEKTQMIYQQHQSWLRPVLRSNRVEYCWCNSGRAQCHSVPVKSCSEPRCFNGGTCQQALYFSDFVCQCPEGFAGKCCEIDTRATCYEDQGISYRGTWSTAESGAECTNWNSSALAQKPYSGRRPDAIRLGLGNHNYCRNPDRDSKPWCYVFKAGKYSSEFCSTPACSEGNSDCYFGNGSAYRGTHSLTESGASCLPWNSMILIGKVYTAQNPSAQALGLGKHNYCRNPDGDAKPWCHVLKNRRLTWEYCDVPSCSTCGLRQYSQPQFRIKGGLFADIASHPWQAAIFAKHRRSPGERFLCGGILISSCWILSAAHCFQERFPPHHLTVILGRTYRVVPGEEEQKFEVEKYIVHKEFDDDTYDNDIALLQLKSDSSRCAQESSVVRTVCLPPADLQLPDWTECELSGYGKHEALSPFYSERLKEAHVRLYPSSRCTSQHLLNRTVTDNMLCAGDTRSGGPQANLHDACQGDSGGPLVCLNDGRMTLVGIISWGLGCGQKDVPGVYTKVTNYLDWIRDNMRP

Human plasma [2] = assay: Human plasma anticoagulation, prothrombin time (PT); details: concentration required to double the PT, linear extrapolation
factor Xa = target: T2, factor Xa (Homo sapiens, UniProt P00742); assay: Serine protease selectivity, chromogenic substrate (Kass), factor Xa; details: substrate N-Benzoyl-Ile-Glu-Gly-Arg-p-nitroanilide
T2 construct: Human factors X, Xa, IXa, XIa, and XIIa are purchased; purchased Enzyme Research Laboratories, South Bend, Ind
T2 sequence (P00742 235-488 limits assumed): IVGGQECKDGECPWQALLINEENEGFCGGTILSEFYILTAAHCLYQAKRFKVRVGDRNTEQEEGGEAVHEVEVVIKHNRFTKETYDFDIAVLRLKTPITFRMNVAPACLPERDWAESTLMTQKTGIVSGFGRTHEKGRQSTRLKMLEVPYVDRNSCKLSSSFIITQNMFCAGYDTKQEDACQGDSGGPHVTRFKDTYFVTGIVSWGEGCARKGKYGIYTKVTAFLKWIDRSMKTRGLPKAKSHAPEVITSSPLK
T2 sequence (P00742 41-179 partner limits assumed): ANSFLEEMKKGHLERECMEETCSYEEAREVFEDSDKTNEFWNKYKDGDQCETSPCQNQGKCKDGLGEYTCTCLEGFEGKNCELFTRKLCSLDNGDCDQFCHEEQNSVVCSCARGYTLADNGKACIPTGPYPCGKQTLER

Plasmin = target: T3, Plasmin (Homo sapiens, UniProt P00747); assay: Serine protease selectivity, chromogenic substrate (Kass), plasmin; details: substrate H-D-Val-Leu-Lys-p-nitroanilide
T3 construct: Human plasmin is purchased; purchased Boehringer Mannheim, Indianapolis, Ind
T3 sequence (P00747 581-810 limits assumed): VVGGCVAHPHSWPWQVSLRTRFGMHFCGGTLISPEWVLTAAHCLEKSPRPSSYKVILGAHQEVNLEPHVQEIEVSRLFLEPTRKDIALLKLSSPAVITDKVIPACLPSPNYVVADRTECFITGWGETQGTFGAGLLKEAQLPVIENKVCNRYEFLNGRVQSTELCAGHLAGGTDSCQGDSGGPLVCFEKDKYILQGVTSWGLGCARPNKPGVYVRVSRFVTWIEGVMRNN
T3 sequence (P00747 97-580 partner limits assumed): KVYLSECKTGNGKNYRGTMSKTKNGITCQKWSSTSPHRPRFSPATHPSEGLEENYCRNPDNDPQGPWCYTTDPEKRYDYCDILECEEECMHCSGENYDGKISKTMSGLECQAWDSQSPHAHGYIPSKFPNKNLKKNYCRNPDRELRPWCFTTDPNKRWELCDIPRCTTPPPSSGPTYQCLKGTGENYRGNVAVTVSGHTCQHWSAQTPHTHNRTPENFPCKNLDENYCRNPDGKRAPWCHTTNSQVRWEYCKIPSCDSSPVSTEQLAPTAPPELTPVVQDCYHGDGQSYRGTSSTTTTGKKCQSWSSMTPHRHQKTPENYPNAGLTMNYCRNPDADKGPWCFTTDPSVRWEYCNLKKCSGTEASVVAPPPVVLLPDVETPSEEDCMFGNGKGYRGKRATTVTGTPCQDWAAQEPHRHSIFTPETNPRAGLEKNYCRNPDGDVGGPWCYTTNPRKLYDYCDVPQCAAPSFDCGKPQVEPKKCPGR

| Enzyme Kass, Human Thrombin (Human Thrombin) | Enzyme Kass, t-PA (t-PA) | Enzyme Kass, Xa (factor Xa) | Enzyme Kass, Plasmin (Plasmin) | Enzyme Kass, Human Thrombin (Human Thrombin; HCl) | Enzyme Kass, t-PA (t-PA; HCl) | Enzyme Kass, Xa (factor Xa; HCl) | Enzyme Kass, Plasmin (Plasmin; HCl) | SMILES | 2x Clotting time, APTT (Human plasma [1]) | 2x Clotting time, PT (Human plasma [2]) | 2x Clotting time, APTT (Human plasma [1]; HCl) | 2x Clotting time, PT (Human plasma [2]; HCl) |
| --- | --- | --- | --- | --- | --- | --- | --- | --- | --- | --- | --- | --- |
| 230 L/mol × 10^6 | 0.045 L/mol × 10^6 | 2.6 L/mol × 10^6 | 5.1 L/mol × 10^6 | – | – | – | – | Cl.Cl.N=C(N)NCCC[C@@H](C=O)NC(=O)[C@@H]1C[C@H](Oc2ccccc2)CN1C(=O)C1NCCC2CCCCC21 (relative stereo) [Example 15, D-1-Piq-Pro(4-cis-phenoxy)-ArgH.2 HCl] | 940 ng/mL | 1,600 ng/mL | – | – |
| 6,170 L/mol × 10^6 | 0.085 L/mol × 10^6 | 11.8 L/mol × 10^6 | 27.6 L/mol × 10^6 | – | – | – | – | CCS(=O)(=O)N[C@@H](C(=O)N1[C@H](C(=O)N[C@H](C=O)CCCNC(=N)N)C[C@@H]2CCCC[C@@H]21)c1ccccc1.Cl (relative stereo) [Example 22, EtSO2 -D-Phg-cis-Ohi-ArgH.HCl] | 332 ng/mL | 1,208 ng/mL | – | – |
| – | – | – | – | 1,630 L/mol × 10^6 | 0.013 L/mol × 10^6 | 0.75 L/mol × 10^6 | 3.67 L/mol × 10^6 | Cl.Cl.N=C(N)NCCCC(C=O)NC(=O)C1CC2CCCCC2N1C(=O)C1NCCC2CCCCC21 [Example 20, D-1-cis-Piq-cis-Ohi-ArgH.2 HCl] | – | – | 627 ng/mL | 1,452 ng/mL |

Reference: patent publication US5599793A, “Antithromobotic agents” (Eli Lilly and Company, priority 1995, dated 1997)
